Laboratory results as given in ChEMBL document CHEMBL1201862, “PubChem BioAssay data set” (2004).
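Step 1: Grow cells in 96-well plates. Step 2: Expose to compound for 48 hours at 5 concentrations. Step 3: Interpolate endpoints linearly; if unreached, use highest concentration. GI50 = concentration required for 50% inhibition of growth.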 Activity calls are given as the source filed them. Cut-off read from the data, not from the text of the source: active = GI50 up to about 1.1 µM and inactive = higher.

Tests used:
Test in all cases: NCI-60 cell line screen, 48 h
Hs-578T = test system: Hs-578T
K562 = test system: K562
SF-295 = test system: SF-295
CCRF-CEM = test system: CCRF-CEM
TK-10 = test system: TK-10
COLO 205 = test system: COLO 205
ACHN = test system: ACHN
NCI-H460 = test system: NCI-H460
LOX IMVI = test system: LOX IMVI
M14 = test system: M14
HCT-15 = test system: HCT-15
SF-268 = test system: SF-268
SNB-75 = test system: SNB-75
UO-31 = test system: UO-31
UACC-62 = test system: UACC-62
HL-60 = test system: HL-60
MDA-MB-231 = test system: MDA-MB-231
SK-MEL-28 = test system: SK-MEL-28
KM12 = test system: KM12
NCI-H522 = test system: NCI-H522
MOLT-4 = test system: MOLT-4
T47D = test system: T47D
NCI-H226 = test system: NCI-H226
MDA-MB-435 = test system: MDA-MB-435
SK-MEL-2 = test system: SK-MEL-2
SN12C = test system: SN12C
PC-3 = test system: PC-3
NCI-H23 = test system: NCI-H23
SK-MEL-5 = test system: SK-MEL-5
OVCAR-5 = test system: OVCAR-5
CAKI-1 = test system: CAKI-1
MDA-N = test system: MDA-N
SW-620 = test system: SW-620
UACC-257 = test system: UACC-257
SR = test system: SR
U-251 = test system: U-251
IGROV-1 = test system: IGROV-1
NCI/ADR-RES = test system: NCI/ADR-RES
HOP-62 = test system: HOP-62
A549 = test system: A549
RPMI-8226 = test system: RPMI-8226
EKVX = test system: EKVX
MCF7 = test system: MCF7
SF-539 = test system: SF-539
RXF 393 = test system: RXF 393
HCT-116 = test system: HCT-116
Malme-3M = test system: Malme-3M
DU-145 = test system: DU-145
OVCAR-8 = test system: OVCAR-8
HT-29 = test system: HT-29
OVCAR-3 = test system: OVCAR-3
HCC 2998 = test system: HCC 2998
SNB-19 = test system: SNB-19
BT-549 = test system: BT-549
786-0 = test system: 786-0
SK-OV-3 = test system: SK-OV-3
A498 = test system: A498
HOP-92 = test system: HOP-92
OVCAR-4 = test system: OVCAR-4

Question: Which GI50 (Hs-578T) does the source give for `COc1cc(C2c3cc4c(cc3OC(NCCc3ccccc3)C2C)OCO4)cc(OC)c1OC` (stereo not drawn) here?
Answer: 138 nM (active)

Question: What about the GI50 (K562) of the same compound?
Answer: 269 nM (active)

Question: What about the GI50 (SF-295) of the same compound?
Answer: 200 nM (active)

Question: What about the GI50 (CCRF-CEM) of the same compound?
Answer: 343 nM (active)

Question: What about the GI50 (TK-10) of the same compound?
Answer: 26500 nM (inactive)

Question: What about the GI50 (COLO 205) of the same compound?
Answer: 242 nM (active)

Question: What about the GI50 (ACHN) of the same compound?
Answer: 1360 nM (inactive)

Question: What about the GI50 (NCI-H460) of the same compound?
Answer: 418 nM (active)

Question: And the GI50 (LOX IMVI)?
Answer: 497 nM (active)

Question: What about the GI50 (M14) of the same compound?
Answer: 356 nM (active)

Question: And the GI50 (HCT-15)?
Answer: 385 nM

Question: And the GI50 (SF-268)?
Answer: 736 nM (active)

Question: And the GI50 (SNB-75)?
Answer: 198 nM (active)

Question: What about the GI50 (UO-31) of the same compound?
Answer: 457 nM (active)

Question: What about the GI50 (UACC-62) of the same compound?
Answer: 388 nM (active)

Question: And the GI50 (HL-60)?
Answer: 208 nM (active)

Question: And the GI50 (MDA-MB-231)?
Answer: 249 nM (active)

Question: What about the GI50 (SK-MEL-28) of the same compound?
Answer: 18300 nM (inactive)

Question: And the GI50 (KM12)?
Answer: 316 nM (active)

Question: And the GI50 (NCI-H522)?
Answer: 248 nM (active)

Question: And the GI50 (MOLT-4)?
Answer: 515 nM (active)

Question: What about the GI50 (T47D) of the same compound?
Answer: 295 nM (active)

Question: And the GI50 (NCI-H226)?
Answer: 871 nM (active)

Question: And the GI50 (MDA-MB-435)?
Answer: 111 nM (active)

Question: And the GI50 (SK-MEL-2)?
Answer: 393 nM (active)

Question: And the GI50 (SN12C)?
Answer: 698 nM (active)

Question: And the GI50 (PC-3)?
Answer: 336 nM (active)

Question: And the GI50 (NCI-H23)?
Answer: 413 nM (active)

Question: And the GI50 (SK-MEL-5)?
Answer: 224 nM (active)

Question: And the GI50 (OVCAR-5)?
Answer: 1750 nM (inactive)

Question: What about the GI50 (CAKI-1) of the same compound?
Answer: 291 nM (active)

Question: What about the GI50 (MDA-N) of the same compound?
Answer: 63.8 nM (active)

Question: What about the GI50 (SW-620) of the same compound?
Answer: 316 nM (active)

Question: And the GI50 (UACC-257)?
Answer: 6340 nM (inactive)

Question: What about the GI50 (SR) of the same compound?
Answer: 174 nM (active)

Question: What about the GI50 (U-251) of the same compound?
Answer: 348 nM (active)

Question: What about the GI50 (IGROV-1) of the same compound?
Answer: 367 nM (active)

Question: And the GI50 (NCI/ADR-RES)?
Answer: 310 nM (active)

Question: And the GI50 (HOP-62)?
Answer: 614 nM (active)

Question: What about the GI50 (A549) of the same compound?
Answer: 452 nM (active)

Question: And the GI50 (RPMI-8226)?
Answer: 319 nM (active)

Question: What about the GI50 (EKVX) of the same compound?
Answer: 1560 nM (inactive)

Question: And the GI50 (MCF7)?
Answer: 383 nM (active)

Question: And the GI50 (SF-539)?
Answer: 286 nM (active)

Question: And the GI50 (RXF 393)?
Answer: 203 nM (active)

Question: What about the GI50 (HCT-116) of the same compound?
Answer: 409 nM (active)

Question: And the GI50 (Malme-3M)?
Answer: 231 nM (active)

Question: What about the GI50 (DU-145) of the same compound?
Answer: 431 nM (active)

Question: What about the GI50 (OVCAR-8) of the same compound?
Answer: 441 nM (active)

Question: What about the GI50 (HT-29) of the same compound?
Answer: 321 nM (active)

Question: And the GI50 (OVCAR-3)?
Answer: 378 nM (active)

Question: What about the GI50 (HCC 2998) of the same compound?
Answer: 282 nM (active)

Question: What about the GI50 (SNB-19) of the same compound?
Answer: 455 nM (active)

Question: What about the GI50 (BT-549) of the same compound?
Answer: 617 nM (active)

Question: What about the GI50 (786-0) of the same compound?
Answer: 465 nM (active)

Question: What about the GI50 (SK-OV-3) of the same compound?
Answer: 397 nM (active)

Question: What about the GI50 (A498) of the same compound?
Answer: 574 nM (active)

Question: And the GI50 (HOP-92)?
Answer: 4670 nM (inactive)

Question: And the GI50 (OVCAR-4)?
Answer: 778 nM (active)

Question: For `Cc1c2cccc-2c(OCCO)cc2c1[nH]c1ccccc12`, which GI50 (Hs-578T) is on record?
Answer: 1670 nM (inactive)

Question: What about the GI50 (K562) of the same compound?
Answer: 3100 nM (inactive)

Question: And the GI50 (SF-295)?
Answer: 3260 nM (inactive)

Question: And the GI50 (CCRF-CEM)?
Answer: 4750 nM (inactive)

Question: And the GI50 (TK-10)?
Answer: 4060 nM (inactive)

Question: What about the GI50 (COLO 205) of the same compound?
Answer: 1870 nM (inactive)

Question: What about the GI50 (ACHN) of the same compound?
Answer: 1640 nM (inactive)

Question: And the GI50 (NCI-H460)?
Answer: 3610 nM (inactive)

Question: And the GI50 (LOX IMVI)?
Answer: 1950 nM (inactive)

Question: And the GI50 (M14)?
Answer: 1970 nM (inactive)

Question: What about the GI50 (HCT-15) of the same compound?
Answer: 3160 nM

Question: What about the GI50 (SF-268) of the same compound?
Answer: 1650 nM (inactive)

Question: And the GI50 (SNB-75)?
Answer: 1710 nM (inactive)

Question: And the GI50 (UO-31)?
Answer: 1500 nM (inactive)

Question: What about the GI50 (UACC-62) of the same compound?
Answer: 2670 nM (inactive)

Question: And the GI50 (HL-60)?
Answer: 2160 nM (inactive)

Question: And the GI50 (MDA-MB-231)?
Answer: 1980 nM (inactive)

Question: What about the GI50 (SK-MEL-28) of the same compound?
Answer: 4490 nM (inactive)

Question: And the GI50 (KM12)?
Answer: 2580 nM (inactive)

Question: And the GI50 (NCI-H522)?
Answer: 1830 nM (inactive)

Question: And the GI50 (MOLT-4)?
Answer: 2990 nM (inactive)

Question: And the GI50 (T47D)?
Answer: 3240 nM (inactive)

Question: And the GI50 (NCI-H226)?
Answer: 2960 nM (inactive)

Question: And the GI50 (MDA-MB-435)?
Answer: 3530 nM (inactive)

Question: What about the GI50 (SK-MEL-2) of the same compound?
Answer: 3720 nM (inactive)

Question: What about the GI50 (SN12C) of the same compound?
Answer: 2090 nM (inactive)

Question: And the GI50 (PC-3)?
Answer: 2720 nM (inactive)

Question: And the GI50 (NCI-H23)?
Answer: 2540 nM (inactive)

Question: And the GI50 (SK-MEL-5)?
Answer: 1340 nM (inactive)

Question: And the GI50 (OVCAR-5)?
Answer: 2260 nM (inactive)

Question: What about the GI50 (CAKI-1) of the same compound?
Answer: 1590 nM (inactive)

Question: And the GI50 (MDA-N)?
Answer: 2760 nM (inactive)

Question: What about the GI50 (SW-620) of the same compound?
Answer: 3520 nM (inactive)

Question: And the GI50 (UACC-257)?
Answer: 3150 nM (inactive)

Question: What about the GI50 (SR) of the same compound?
Answer: 5270 nM (inactive)

Question: What about the GI50 (U-251) of the same compound?
Answer: 1890 nM (inactive)

Question: And the GI50 (IGROV-1)?
Answer: 1880 nM (inactive)

Question: And the GI50 (NCI/ADR-RES)?
Answer: 3030 nM (inactive)

Question: And the GI50 (HOP-62)?
Answer: 3420 nM (inactive)

Question: What about the GI50 (A549) of the same compound?
Answer: 3150 nM (inactive)

Question: What about the GI50 (RPMI-8226) of the same compound?
Answer: 3000 nM (inactive)

Question: And the GI50 (EKVX)?
Answer: 1040 nM (active)

Question: And the GI50 (MCF7)?
Answer: 2690 nM (inactive)

Question: And the GI50 (SF-539)?
Answer: 1740 nM (inactive)

Question: What about the GI50 (RXF 393) of the same compound?
Answer: 2370 nM (inactive)

Question: What about the GI50 (HCT-116) of the same compound?
Answer: 3010 nM (inactive)

Question: What about the GI50 (Malme-3M) of the same compound?
Answer: 1730 nM (inactive)

Question: What about the GI50 (DU-145) of the same compound?
Answer: 5320 nM (inactive)

Question: And the GI50 (OVCAR-8)?
Answer: 3600 nM (inactive)

Question: And the GI50 (HT-29)?
Answer: 3520 nM (inactive)

Question: And the GI50 (OVCAR-3)?
Answer: 1810 nM (inactive)

Question: What about the GI50 (HCC 2998) of the same compound?
Answer: 3150 nM (inactive)

Question: What about the GI50 (SNB-19) of the same compound?
Answer: 8570 nM (inactive)

Question: What about the GI50 (BT-549) of the same compound?
Answer: 2920 nM (inactive)

Question: What about the GI50 (786-0) of the same compound?
Answer: 2240 nM (inactive)

Question: And the GI50 (SK-OV-3)?
Answer: 3270 nM (inactive)

Question: What about the GI50 (A498) of the same compound?
Answer: 11800 nM (inactive)

Question: What about the GI50 (HOP-92) of the same compound?
Answer: 2750 nM (inactive)

Question: What about the GI50 (OVCAR-4) of the same compound?
Answer: 3430 nM (inactive)
